Experiments:
[1] = molecular target: T1, ER-α in MCF-7 cells harboring mutant ER (WT/Y537S) (Homo sapiens, UniProt P03372, Y537S); test: ER-α degradation (SERD) assay, MCF-7 Y537S; type: cell-based; details: for DC50: MCF-7 Y537S, 4 days, read-out: ER-α degradation assay Y537S IC50
T1 construct: MCF-7 cells harboring mutant ER (WT/D538G and WT/Y537S); endogenous in cells; host or cells: MCF-7 Y537S (WT/Y537S)
T1 sequence (P03372 1-595 Y537S): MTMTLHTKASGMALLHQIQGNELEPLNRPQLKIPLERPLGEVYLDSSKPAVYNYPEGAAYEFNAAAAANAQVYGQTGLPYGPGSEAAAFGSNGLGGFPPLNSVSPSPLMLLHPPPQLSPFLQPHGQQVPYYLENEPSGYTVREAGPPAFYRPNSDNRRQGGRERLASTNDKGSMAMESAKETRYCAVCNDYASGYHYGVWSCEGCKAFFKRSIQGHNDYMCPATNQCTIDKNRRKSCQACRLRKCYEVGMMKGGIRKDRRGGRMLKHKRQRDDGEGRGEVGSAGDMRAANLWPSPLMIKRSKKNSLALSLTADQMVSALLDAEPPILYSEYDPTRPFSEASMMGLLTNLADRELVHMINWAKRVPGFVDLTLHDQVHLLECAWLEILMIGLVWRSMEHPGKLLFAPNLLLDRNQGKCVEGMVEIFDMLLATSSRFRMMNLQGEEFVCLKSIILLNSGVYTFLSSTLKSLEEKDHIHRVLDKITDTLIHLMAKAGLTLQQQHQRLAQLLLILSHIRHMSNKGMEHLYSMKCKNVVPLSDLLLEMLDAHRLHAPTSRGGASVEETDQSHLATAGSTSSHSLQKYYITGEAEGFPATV
Protocol: Selective Estrogen Receptor Degradation (SERD) Assay:
The SERD activity for the test compounds was evaluated in MCF-7 cells harboring ER wild type, and MCF-7 cells harboring mutant ER (WT/D538G and WT/Y537S). Briefly, cells were plated in phenol red free RPMI1640 medium supplemented with 5% charcoal stripped fetal bovine serum. The seeding density was 40000 cells/well for MCF-7 WT and MCF-7 D538G and 50000 cells/well MCF-7 Y537S in a 48-well plate. Following overnight incubation, the cells were treated with varying concentrations of test compounds (final concentration: 1000 nM to 0.01 nM, 0.1% DMSO) for 4 days. The cells were lysed using PBS supplemented with 1 mM EDTA, 0.5% Triton X-100, 5 mM NaF, 6 M urea, and 1× Protease inhibitor cocktail. The lysate was analyzed for ER alpha protein using western blot. For the western blot, the cell lysate (12.5-40 μg total protein) was resolved on a 10% SDS PAGE and transferred onto a PVDF membrane. The blots were blocked using 5% skim milk powder in 0.1% PBS-T for 1 hour at room temperature, followed by co-incubation with rabbit anti-human β-actin antibody and rabbit anti-human ERα antibody for 2 hours at room temperature. The blots were subsequently probed with anti-rabbit IgG-HRP conjugate as secondary antibody for 1 hour at room temperature. The blots were developed by using West Pico Super Signal Chemiluminescence substrate and the bands were processed for densitometry analysis using Image Lab software (BioRad version 6.0.0). ERα band intensity was normalized to that housekeeping protein for respective samples. The % ER remaining was calculated by normalizing against the vehicle control (as 100%).

[2] = tested on: MCF-7 cells harboring mutant ER (WT/Y537S); test: MCF-7 cell growth inhibition assay, Y537S; type: cell-based; details: Homo sapiens, MCF7, 168 h; MCF-7 Y537S, seven-day incubation
Protocol: (§1) MCF-7 Cell Growth Inhibition Assay:
(§2) The anti-proliferative activity of the test compounds were evaluated in a growth inhibition assay. Briefly, MCF-7 cells harboring ER wild type (Wt), and MCF-7 cells harboring mutant ER (WT/D538G and WT/Y537S) were seeded at a density of 1000 cells/well in 96-well plate in phenol red free RPMI1640 medium supplemented with 10% charcoal stripped fetal bovine serum. The cells were incubated overnight at 37° C. and 5% CO2 followed by the addition of varying concentrations of the test compounds in DMSO. Final concentration of DMSO in the well was 0.5%. Following a seven-day incubation of cells with the test compounds, cell viability was assessed using a Prestoblue™ reagent. The percent inhibition of cell proliferation was calculated by normalizing the cell viability using a vehicle control as 0% inhibition of proliferation.

[3] = tested on: MCF-7 cells harboring ER wild type (Wt); test: MCF-7 cell growth inhibition assay, wild type; type: cell-based, human; details: for IC50: Homo sapiens, MCF7, 168 h, MCF-7 Wt, seven-day incubation
Protocol: as §1, §2

DC50 [1] | ER-α degradation in mutated cell line (in words) ([1]; Y537S) | IC50 [2] | IC50 [3] | Compound | Potency of Formula Ia relative to Formula Ib in MCF-7 growth inhibition assay ([3]; wild type)
> 1000 nM | no ER-α degradation | 1000 nM | 69.9 nM | CC1=C(c2cc(F)cc(F)c2)[C@@H](c2ccc(/C=C/CN3CC(CF)C3)cc2)Oc2cc(O)ccc21 [Formula Ib, (2R)-3-(3,5-difluorophenyl)-2-[4-[(E)-3-[3-(fluoromethyl)azetidin-1-yl]prop-1-enyl]phenyl]-4-methyl-2H-chromen-7-ol] | –
19.6 nM | – | 6 nM | 0.3 nM | CC1=C(c2cc(F)cc(F)c2)[C@H](c2ccc(/C=C/CN3CC(CF)C3)cc2)Oc2cc(O)ccc21 [Formula Ia, (2S)-3-(3,5-difluorophenyl)-2-[4-[(E)-3-[3-(fluoromethyl)azetidin-1-yl]prop-1-enyl]phenyl]-4-methyl-2H-chromen-7-ol] | about 233 times
